Source: US20230037862A1, “SYNTHETIC AGONISTS OF TLR4 RECEPTOR” (UNIVERSITÀ DEGLO STUDI DI MILANO - BICOCCA, priority 2017, published 2023)
Entries after “also recorded” stand apart in the source; their conditions may differ.

Columns and labels:
[1] = target: T1, purified human MD-2 receptor (Homo sapiens, UniProt Q9Y6Y9); experiment: MD-2-bound fluorescent molecule (bis-ANS) displacement assay; type: binding; settings: MD-2 200 nM, bis-ANS 200 nM
T1 sequence (Q9Y6Y9 19-160): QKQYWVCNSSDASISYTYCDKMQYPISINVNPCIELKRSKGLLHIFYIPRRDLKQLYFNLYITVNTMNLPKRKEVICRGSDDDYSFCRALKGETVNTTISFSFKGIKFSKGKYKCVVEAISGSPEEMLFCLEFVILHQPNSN
Experimental: therefore, TLR4 modulators that interact with MD-2 compete with compound bis-ANS, and are able to displace it from MD-2.
Fluorescence was measured on PerkinElmer fluorimeter LS 55 (PerkinElmer, UK) as previously described^[5].
All measurements were done at 20° C. in a 5×5 mm quartz glass cuvette (Hellma Suprasil, Müllheim, Germany). MD-2 protein (200 nM) and 1,1′-Bis(anilino)-4,4′-bis (naphtalene)-8,8′ disulfonate (bis-ANS, 200 nM) were mixed and incubated until reaching stable relative fluorescence units (RFUs) emitted at 420-550 nm under excitation at 385 nm.
Compounds, at different concentrations, were then added, followed by relative fluorescence unit (RFU) measurement at 420-550 nm.

[2] = target: T1, purified human MD-2 receptor; experiment: Surface plasmon resonance binding to MD-2
Experimental: Surface plasmon resonance (SPR) experiments enable the study of direct interactions between the molecules to be characterized and MD-2.
The binding affinity of the compounds to recombinant MD-2 was determined using a Biacore X100 with an NTA sensor chip (Biacore, GE Healthcare, Uppsala, Sweden). Briefly, 0.5 μM MD-2 (in 50 mM TRIS, 150 mM NaCl, 0.5% Tween 20, pH 7.5) was immobilized onto the sensor chip previously activated with 1 min pulse of 10 mM NiSO4. The first flow cell was used as a reference surface to control nonspecific binding.
Both flow cells were incubated with the analyte (in PBS, 5% DMSO, 5% EtOH, pH 7.5) at a flow rate of 10 μL/min at 25° C. at increasing concentrations. The data were analyzed with Biacore Evaluation software. KD values were calculated by global fitting of the equilibrium binding responses from various concentrations of analytes using a 1:1 Langmuir binding model.

[3] = tested on: HEK-Blue™ hTLR4 cells; experiment: MTT cell viability assay; type: cell-based; settings: 25 and 50 μM, 16-18 hours
Experimental: HEK-Blue™ hTLR4 cells were treated with the higher concentrations used in the preceding assays and incubated for 16-18 hours. Results were normalized to PBS addition and are expressed as mean of percentage ±ES. of at least three independent experiments.
Finally, compound FP11 cytotoxicity was assessed by MTT (3-(4,5-dimethylthiazol-2-yl)-2,5-diphenyltetrazolium bromide) viability assay. HEK-Blue™ hTLR4 cells were treated with the highest compound concentrations used in the preceding assay (25 and 50 μM).
HEK-Blue™ hTLR4 cells were grown in DMEM supplemented with 10% FBS, 2 mM glutamine and antibiotics.
Cells were seeded in 100 μL of DMEM without Phenol Red at a density of 4×10^4 cells per well and incubated overnight (37° C., 5% CO2 , 95% humidity).
Cells were treated with the higher dose of compound used in the previous experiments and incubated overnight. MTT solution (5 mg/mL in PBS) was added to each well, and after 3 h incubation, 0.1 N HCl in 2-propanol solution was used to dissolve formazan crystals.
Formazan concentration was determined by measuring the absorbance at 570 nm.
The results were normalized with untreated control (PBS) and expressed as the mean of percentage ±SEM of three independent experiments.

[4] = target: T2, hTLR4 (Homo sapiens, UniProt O00206+Q9Y6Y9); experiment: HEK-Blue hTLR4 SEAP reporter assay (NF-κB/AP-1 activation); type: cell-based; settings: HEK-Blue hTLR4 cells, 16-18 hours
T2 construct: host or cells: HEK-Blue hTLR4 (HEK cells)
Experimental: HEK-Blue™ hTLR4 (FIG. 1A) and HEK-Blue™ Null2 (FIG. 1B) cells were treated with the indicated concentrations of compounds FP11, FP111, and with LPS (100 ng/mL) and incubated for 16-18 hours. Results were normalized to stimulation with LPS alone, and are expressed as mean of percentage ±ES. of at least three independent experiments.
HEK-Blue™ hTLR4 cells were treated with increasing concentrations of compound FP11 and of LPS and incubated for 16-18 hours. Results were normalized to maximum activation of the reporter produced by LPS (FIG. 2A) and to maximum activation of the reporter produced by the compound itself (FIG. 2B). Data were fitted to a sigmoidal four-parameter logistic equation in order to determine IC50 values, and expressed as mean of percentage ±ES of at least three independent experiments.
HEK-Blue™ hTLR4 cells are HEK cells transfected so as to stably express human receptors hTLR4, hMD-2, and hCD14 for endotoxin recognition. In addition, said cells have a reporter gene encoding for a secreted alkaline phosphatase (SEAP) μlaced under the control of specific transcription factors (NF-κB and AP-1) activated by the TLR4 signaling pathway. Therefore, the presence of LPS or of an agonist of TLR4 causes receptor dimerization, activation of the signaling pathway and of transcription factors NF-κB and AP-1, and finally SEAP production and secretion into the culture medium. SEAP levels can be subsequently quantitated by incubating the medium with compound p-nitrophenylphosphate (pNPP) and monitoring with a spectrophotometer the formation of p-nitrophenol chromogenic product at 405 nm.
HEK-Blue™ hTLR4 cells (InvivoGen) were cultured according to manufacturer's instruction. […]
Cells were detached using a cell scraper, counted and seeded in a 96-well multiwell plate at a density of 4×10^4 cells per well. […]
The wells' optical density was determined using a microplate reader set at 405 nm.
The results were normalized with positive control (LPS alone) and expressed as a mean of percentage ±SEM of at least three independent experiments.

T2 sequence (O00206 24-839): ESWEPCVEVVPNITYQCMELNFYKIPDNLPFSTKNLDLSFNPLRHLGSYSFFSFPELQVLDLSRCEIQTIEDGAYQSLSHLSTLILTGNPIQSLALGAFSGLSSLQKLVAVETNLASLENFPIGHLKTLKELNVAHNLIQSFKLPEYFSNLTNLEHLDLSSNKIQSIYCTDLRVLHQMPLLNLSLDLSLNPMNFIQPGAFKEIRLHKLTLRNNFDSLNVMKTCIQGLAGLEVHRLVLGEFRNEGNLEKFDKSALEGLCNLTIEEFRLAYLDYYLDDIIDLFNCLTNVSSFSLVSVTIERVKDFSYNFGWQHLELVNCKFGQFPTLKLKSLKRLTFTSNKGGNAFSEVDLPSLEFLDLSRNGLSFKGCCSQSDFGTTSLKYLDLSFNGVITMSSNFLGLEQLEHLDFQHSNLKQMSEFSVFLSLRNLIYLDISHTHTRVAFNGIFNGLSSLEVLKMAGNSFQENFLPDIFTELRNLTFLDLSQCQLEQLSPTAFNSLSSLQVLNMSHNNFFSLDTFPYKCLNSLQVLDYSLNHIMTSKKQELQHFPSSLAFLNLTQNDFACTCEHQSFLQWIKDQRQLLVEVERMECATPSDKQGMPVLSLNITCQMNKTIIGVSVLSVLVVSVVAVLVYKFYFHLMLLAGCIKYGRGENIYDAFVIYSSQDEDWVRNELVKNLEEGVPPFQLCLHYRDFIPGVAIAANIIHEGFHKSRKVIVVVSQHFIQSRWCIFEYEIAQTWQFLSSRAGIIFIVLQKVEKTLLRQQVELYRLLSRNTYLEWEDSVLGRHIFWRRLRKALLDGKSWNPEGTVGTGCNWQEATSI
T2 sequence (Q9Y6Y9 17-160 limits assumed): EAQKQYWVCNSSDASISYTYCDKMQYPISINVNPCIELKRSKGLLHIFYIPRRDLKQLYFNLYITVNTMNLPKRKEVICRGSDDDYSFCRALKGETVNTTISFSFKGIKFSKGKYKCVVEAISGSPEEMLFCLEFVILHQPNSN

- Kd ([2]; SPR, 1:1 Langmuir binding model, 25° C.): 6.5 µM
- concentrations at which activation of NF-κB and AP-1 is induced ([4]; SEAP reporter): > 5 µM
- EC50 ([4]; dose-response curve): 12.3 µM
SMILES: CCCCCCCCCCCCCC(=O)NC1C(OC(=O)CCCCCCCCCCCCC)[C@H](OC(=O)CCCCCCCCCCCCC)C(CO)O[C@H]1OP(=O)(O)O (stereo partly drawn) [FP11, 1-O-Phosphoryl-2-deoxy-4-O-tetradecanoyl 3-O-tetradecanoyl-2-tetradecanoylamino-α-D-glucopiranoside]
- decrease of bis-ANS fluorescence / inhibition of bis-ANS binding to MD-2 [1]: concentration-dependent decrease of compound bis-ANS fluorescence; also recorded: inhibits the binding of bis-ANS to MD-2 in a dose-dependent manner
- direct binding to MD-2 (SPR) [2]: directly binds the MD-2 hydrophobic pocket
- cytotoxicity (MTT viability) [3]: not toxic at the concentrations assayed
